In ChEMBL document CHEMBL1151215, “Isotsaokoin, an antifungal agent from Amomum tsao-ko” (2004) one finds Activity and zone of inhibition data, which are given here for 3 compounds.

Active and inactive are the calls of the source. No cut-off for these calls is given here.

The test system of assay [1] is Trichophyton mentagrophytes. Description: Antifungal activity against Trichophyton mentagrophytes KCTC 6085 at 60 ug/disk after 4 days by paper-disk agar diffusion assay. In kind it is functional, organism-based. (In general: Agar diffusion results depend on both activity and mobility in agar.)
Assay [2] has as its system Trichophyton mentagrophytes. Description: Antifungal activity against Trichophyton mentagrophytes KCTC 6085 at 20 ug/disk after 4 days by paper-disk agar diffusion assay. In kind it is functional. The conditions noted are these: KCTC 6085, 96 h, read-out: IZ.
For assay [3], the system named is Trichophyton mentagrophytes. The assay can be described thus: Antifungal activity against Trichophyton mentagrophytes KCTC 6085 at 40 ug/disk after 4 days by paper-disk agar diffusion assay. It is filed as functional. The settings on record: KCTC 6085, 96 h, read-out: IZ.

For `OCC1=CC[C@@H](O)[C@H]2CCC[C@@H]12`, in assay [1], the outcome was inactive. For `O=CC1=CC[C@@H](O)[C@@H]2CCC[C@H]12` (relative stereo) [ISOTSAOKOIN], the zone of inhibition at 20 µg/disc in assay [2] worked out at 1.5 mm. The zone of inhibition at 40 µg/disc in assay [3] was 2 mm. Taken in the same sequence, the figures for `C[C@@H]1[C@H](O)[C@@H](C)/C=C/C=C/C=C/C=C/C=C/C=C/C=C/[C@H](O[C@@H]2O[C@H](C)[C@@H](O)[C@H](N)[C@@H]2O)C[C@@H]2O[C@](O)(C[C@@H](O)C[C@@H](O)[C@H](O)CC[C@@H](O)C[C@@H](O)CC(=O)O[C@H]1C)C[C@H](O)[C@H]2C(=O)O` [AMPHOTERICIN B] were 2.5 mm and 3 mm.
